In ChEMBL document CHEMBL5365544, “Design, synthesis of auristatins-glucuronide conjugates targeting the β-glucuronidase in tumor microenvironment” (Bioorg Med Chem Lett, 2023):
Active and inactive are the calls of the source. No cut-off for these calls is given here.

Legend:
A549 [1] = test: Antiproliferative activity against human A549 cells assessed as inhibition of cell growth; format: functional, cell-based
HeLa [2] = test: Antiproliferative activity against human HeLa cells assessed as inhibition of cell growth; format: functional, cell-based
HCT-116 [3] = test: Antiproliferative activity against human HCT-116 cells assessed as inhibition of cell growth; format: functional, cell-based
HCT-116 [4] = test: Antitumor activity against human HCT-116 cells xenografted in BALB/C mouse assessed as tumor growth inhibition at 0.5 mg/kg, iv administered every 5 days; format: functional, organism-based; settings: time 5.0 day
[5] = Chemical stability of compound in phosphate buffer at pH 7.4 for 37 degC assessed as drug degradation measured after 2 hrs in presence of beta-glucuronidase by HPLC method; format: physicochemical; settings: pH 7.4, 2 h
[6] = Toxicity in BALB/c mouse assessed as side effect at 2 to 4 mg/kg, iv administered every 3 days; format: organism-based; settings: in vivo, 72 h, dose 2-4 mg/kg, time 3 day
[7] = Chemical stability of compound in phosphate buffer at pH 7.4 for 37 degC assessed as drug degradation measured after 20 mins in presence of beta-glucuronidase by HPLC method relative to control; format: physicochemical; settings: phosphate buffer with beta-glucuronidase, read-out: Drug degradation
HeLa [8] = test: Antiproliferative activity against human HeLa cells assessed as inhibition of cell growth in presence of beta-glucuronidase; format: functional, cell-based
A549 [9] = test: Antiproliferative activity against human A549 cells assessed as inhibition of cell growth in presence of beta-glucuronidase; format: functional, cell-based
HCT-116 [10] = test: Antiproliferative activity against human HCT-116 cells assessed as inhibition of cell growth in presence of beta-glucuronidase; format: functional, cell-based
[11] = Stability of compound in bovine serum solution for 37 degC assessed as degradation measured after 48 hrs by HPLC method; format: ADME, cell-free, Bos taurus; settings: cattle
[12] = Chemical stability of compound in phosphate buffer at pH 7.4 for 37 degC assessed as degradation measured after 48 hrs by HPLC method; format: physicochemical; settings: pH 7.4, 48 h
HCT-116 [13] = test: Antitumor activity against human HCT-116 cells xenografted in iv dosed BALB/C mouse assessed as tumor growth inhibition administered every 5 days; format: functional, organism-based; settings: dose 2-4 mg/kg, time 5.0 day
[14] = Toxicity in BALB/c mouse assessed as body weight loss at 2 to 4 mg/kg, iv administered every 3 days; format: organism-based; settings: in vivo, 72 h, dose 2-4 mg/kg, time 3 day

Compound	IC50 (A549 [1])	IC50 (HeLa [2])	IC50 (HCT-116 [3])	Activity (HCT-116 [4])	Stability [5]	Activity [6]	metabolised at 20 min [7]	IC50 (HeLa [8])	IC50 (A549 [9])	IC50 (HCT-116 [10])	Stability [11]	Stability [12]	Activity (HCT-116 [13])	Activity [14]
CC[C@H](C)[C@@H]([C@@H](CC(=O)N1CCC[C@H]1[C@H](OC)[C@@H](C)C(=O)N[C@H](C)[C@@H](O)c1ccc(F)cc1)OC)N(C)C(=O)[C@@H](NC(=O)[C@H](C(C)C)N(C)C)C(C)C	5.52 nM	4.87 nM	6.13 nM											
CC[C@H](C)[C@@H]([C@@H](CC(=O)N1CCC[C@H]1[C@H](OC)[C@@H](C)C(=O)N[C@H](C)[C@@H](O)c1ccccc1)OC)N(C)C(=O)[C@@H](NC(=O)[C@H](C(C)C)N(C)C)C(C)C	5.03 nM	4.89 nM	4.96 nM	Active	Unstable	Non-Toxic	37%							
CC[C@H](C)[C@@H]([C@@H](CC(=O)N1CCC[C@H]1[C@H](OC)[C@@H](C)C(=O)N[C@H](C)[C@@H](OC(=O)N(C)CCN(C)C(=O)OCc1ccc(O[C@@H]2O[C@H](C(=O)O)[C@@H](O)[C@H](O)[C@H]2O)c([N+](=O)[O-])c1)c1ccc(F)cc1)OC)N(C)C(=O)[C@@H](NC(=O)[C@H](C(C)C)N(C)C)C(C)C	1020 nM	990 nM	1110 nM					8.3 nM	9.68 nM	9.11 nM	Stable	Stable		
CC[C@H](C)[C@@H]([C@@H](CC(=O)N1CCC[C@H]1[C@H](OC)[C@@H](C)C(=O)N[C@H](C)[C@@H](OC(=O)N(C)CCN(C)C(=O)OCc1ccc(O[C@@H]2O[C@H](C(=O)O)[C@@H](O)[C@H](O)[C@H]2O)c([N+](=O)[O-])c1)c1ccccc1)OC)N(C)C(=O)[C@@H](NC(=O)[C@H](C(C)C)N(C)C)C(C)C	1520 nM	1650 nM	1490 nM		Unstable		48%	5.73 nM	6.38 nM	6.61 nM	Stable	Stable	Dose-Dependent Effect	Non-Toxic
